Assay results reported in patent US20020002294A1, “Estrogenic compounds as antiangiogenic agents” (priority 1997, published 2002).

Legend:
[1] = system: 8 human breast cancer cell lines; experiment: human tumor cell panel assay in vitro, breast panel; assay type: cell-based; set-up: key to Most Sensitive Cell Lines in Human Tumor Cell Panel Assay: Breast: Most sensitive cell panes are marked with ✓; conditions: for Most Sensitive Cell Lines in Human Tumor Cell Panel Assay: Breast: 8 cell lines, only MCF-7 and T-47D express estrogen and progesterone receptors; for IC50: Homo sapiens, read-out: Tumor Panel: Average log IC50(Molar) against 8 human breast cancer cell lines (converted); for IC50 / Tumor Panel: Average log IC50(Molar) against 8 human breast cancer cell lines: cell panel assay in vitro, two values per cell separated by /
Excerpt: (§1) The tubulin activities, breast cancer cell line activities, and the cell panels most sensitive to selected analogs are shown in Tables 3 and 4.

Melanoma cell lines = experiment: Human Tumor Cell Panel Assay in vitro, melanoma panel; assay type: cell-based; set-up: key: Most sensitive cell panes are marked with ✓
Excerpt: as §1

Renal cell lines = experiment: Human Tumor Cell Panel Assay in vitro, renal panel; assay type: cell-based; set-up: key: Most sensitive cell panes are marked with ✓
Excerpt: as §1

[2] = system: Ovarian cell lines (especially OVCAR-3); experiment: Human Tumor Cell Panel Assay in vitro, ovarian panel; assay type: cell-based; set-up: key: Most sensitive cell panes are marked with ✓
Excerpt: as §1

CNS cell lines = experiment: Human Tumor Cell Panel Assay in vitro, CNS panel; assay type: cell-based; set-up: key: Most sensitive cell panes are marked with ✓
Excerpt: as §1

tubulin [3] = experiment: tubulin activities of 2-ME analogs (Table 3); assay type: biochemical
tubulin [4] = experiment: inhibition of tubulin polymerization in vitro (turbidity at 350 nm); assay type: biochemical; conditions: read-out: IC50 (concentration required to inhibit tubulin polymerization by 50%); mean ± S.D.; method of Example 1
Experimental: Anti-mitotic activity can be evaluated by testing the ability of an estradiol derivative to inhibit tubulin polymerization and microtubule assembly in vitro. Microtubule assembly is followed in a Gilford recording spectrophotometer (model 250 or 2400S) equipped with electronic temperature controllers. A reaction mixture (all concentrations refer to a final reaction volume of […]) contains 1.0 M monosodium glutamate (ph 6.6), 1. omg/ml (10 μM) tubulin, 1.0 mM MgCl2, 4% (v/v) dimethylsulfoxide and 20-75μM of a composition to be tested. The 0.24 ml reaction mixtures are incubated for 15 min. at 37° C. and then chilled on ice. After addition of 10p1 2.5mM GTP, the reaction mixture is transferred to a cuvette at 0° C., and a baseline established. At time zero, the temperature controller of the spectrophotometer is set at 37° C. Microtubule assembly is evaluated by increased turbity at 350 nm.
A. Each reaction mixture (all concentrations refer to the final reaction volume of 0.25 ml) contained 1.0 M monosodium glutamate (pH 6.6), 1.0 mg/ml (10 μM) tubulin, 1.0 mM MgCl2, 4% (v/v) dimethylsulfoxide, and either 0 (curve 1), 20μM (curve 2), 40 μM (curve 3), or 75 μM (curve 4) 2-methoxyestradiol. The 0.24 ml reaction mixtures were incubated for 15 min. at 37° C and chilled on ice. After addition of 10 μl of 2.5 mM GTP the reaction mixtures were transferred to cuvettes held at 0° C., and baselines were established. At time zero the temperature controller was set at 37° C. At the times indicated by the vertical dashed lines the temperature controller was set at the indicated temperatures.
B. Each reaction mixture contained 0.8 M monosodium glutamate (pH 6.6), 1.2 mg/ml (12 μM) tubulin, 4% (v/v) dimethylsulfoxide, and either 0 (curve 1), 1.0 FM (curve 2), 2.0 ,M (curve 3), 3.0 μM (curve 4), or 4.0 μM (curve 5) 2-methoxyestradiol. The 0.24 ml reaction mixtures were incubated for 15 min. at 26° C. and chilled on ice. After addition of 10μl of 10 mM GTP the reaction mixtures were transferred to cuvettes held at 0° C., and baselines were established. At time zero the temperature controller was set at 26° C. At the time indicated by vertical dashed line the temperature controller was set at 0° C.
The method is given in Example 1.
S.D., standard deviation.

[5] = system: MDA-MB-435 estrogen receptor-negative human breast carcinoma cells; experiment: In Vivo Tumor Growth Inhibition; set-up: species or system SCID mice
Experimental: To determine the antitumor activity of 2-ME and derivatives, SCID mice were s.c. inoculated with 10^6 MDA-MB-435 estrogen receptor-negative human breast carcinoma cells. Treatment was initiated on day 12 when tumor volumes reached 75-100 mm3 in volume. Drugs were suspended in 0.5 g/100 ml of carboxymethylcellulose with sterile glass beads, vortexed for 5 minutes, and administered p.o. in a volume of 0.1 ml. Control mice received 0.1 ml of carboxymethylcellulose p.o. Serial caliper measurements of perpendicular diameters were used to calculate tumor volume using the following: (shortest diameter)^2×(longest diameter)×0.52. T/C was calculated as the volume of treated tumors over the volume of control tumors. A smaller number indicates a greater inhibition of tumor growth.

[6] = system: corneal neovascularization; experiment: Mouse Corneal Micropocket Assay; assay type: in vivo, mice; conditions: daily oral, 5 days
Experimental: Five- to 7-week-old SCID female mice were obtained from Massachusetts General Hospital (Boston, Mass.), Immunocompetent 7-9-week-old female C57BL/6 mice were obtained from ARCH Technical Services, Children's Hospital (Boston, Mass.). All animal studies were conducted according to protocols approved by the Animal Ethics Committee of Children's Hospital. Animals were anesthetized in a methoxyflurane (Pittman-Moore, Mundelein, Ill.) chamber prior to all procedures and were observed until fully recovered. Animals were sacrificed by a lethal dose of methoxyflurane.
Mouse Corneal Micropocket Assay To study the effect of microtubule inhibitors on angiogenesis in vivo, a model of angiogenesis in the mouse cornea was used in […] mice as described previously (Kenyon, B. B., Voest, E. E., Chen, C. C., Folkman, J., and D'Amato, R. J. A model of angiogenesis in the mouse cornea. Invest. Ophthalmol. & Visual Sci., 76: 1625-1632, 1996). In brief, after animals were anesthetized, corneal micropockets were created in both eyes with a modified von Graefe cataract knife. Into each pocket, a 0.4 mm ×0.4 mm×0.2 mm sucrose aluminum sulfate (Bukh Meditee, Copenhagen, Denmark) pellet coated with hydron polymer type NCC (IHN Sciences, New Brunswick, N.J.) containing 80 ng of bFGF or 160 ng of human recombinant […] (gift from Reprogenesis, Cambridge, Mass.) was implanted 1.0-1.2 mm from the limbal vessels (bFGF experiments) or 0.5-0.7 mm from the limbus (VEGF experiments). Erythromycin ointment (E. Fougera, Melville, N.Y.) was applied to each operated eye. The sucralfate acts to stabilize the growth factor and to slow its release from the hydron. Before testing each drug in this assay, we found the maximal dose that could be administered daily for 5 consecutive days without producing signs of toxicity (i.e., no hair loss, diarrhea, infection, lethargy, or weight loss). The treated groups received daily oral administration for 5 consecutive days of the stated dosage of 2-ME or a derivative thereof suspended in 0.5 g/100 ml of carboxymethylcellulose.
Treatment was started on the day of pellet implantation. […] For this purpose, the eyes of the mice were examined by slit-lamp biomicroscopy. Area of corneal neovascularization was calculated using a modified formula for a half-ellipse: Area (mm^2)=[π×clock hours×length (mm)×0.2 mm]. This formula provides the most accurate approximation of the area of neovascularization that grows toward the pellet. (Kenyon, B. B., Voest, E. E., Chen, C. C., Folkman, J., and D'Amato, R. J. A model of angiogenesis in the mouse cornea. Invest. Ophthalmol. & Visual Sci., 76: 1625-1632, 1996).

[7] = 150 mg/kg p.o., duration not stated

SMILES | Most Sensitive Cell Lines in Human Tumor Cell Panel Assay: Breast [1] | Most Sensitive Cell Lines in Human Tumor Cell Panel Assay: Ovarian [2] | Most Sensitive Cell Lines in Human Tumor Cell Panel Assay: CNS (CNS cell lines) | IC50 (tubulin [3]) | IC50 (tubulin [4]) | also measured
C=Cc1cc2c(cc1O)CCC1C2CCC2(C)C(O)CCC12 (stereo not drawn) [NSC 667049] | ✓ | ✓ | ✓ | 5.2 ± 1 µM |  | IC50 [1]: 2.51 µM; Most Sensitive Cell Lines in Human Tumor Cell Panel Assay: Melanoma (Melanoma cell lines): ✓; Most Sensitive Cell Lines in Human Tumor Cell Panel Assay: Renal (Renal cell lines): ✓
COc1cc2c(cc1OC)C1CCC3(C)C(O)CCC3C1CC2 (stereo not drawn) [2-Methoxyestradiol-3-0-methyl ether] |  |  |  |  | > 40 µM | 
COc1c(O)ccc2c1CCC1C2CCC2(C)C(O)CCC12 (stereo not drawn) [4-Methoxyestradiol] |  |  |  |  | > 40 µM | 
COc1ccc(CCc2cc(OC)c(OC)c(OC)c2)cc1O [Dihydrocombretastatin A-4] |  |  |  |  | 0.63 ± 0.03 µM | 
CC12CCC3c4cc(F)c(O)cc4CCC3C1CCC2O (stereo not drawn) [2-Fluoroestradiol] |  |  |  |  | 27 ± 6 µM | 
C[C@]12CC[C@@H]3c4ccc(O)cc4CC[C@H]3[C@@H]1C[C@@H](O)[C@@H]2O [Estriol] |  |  |  |  | > 40 µM | 
CCOc1cc2c(cc1O)C(=O)CC1C2CCC2(C)C(O)CCC12 (stereo not drawn) [NSC 679431] | ✓ | ✓ | ✓ | 4.8 µM |  | Most Sensitive Cell Lines in Human Tumor Cell Panel Assay: Melanoma (Melanoma cell lines): ✓; T/C (volume of treated tumors over volume of control tumors) [5, 7]: 0.9; Most Sensitive Cell Lines in Human Tumor Cell Panel Assay: Renal (Renal cell lines): ✓
CC#Cc1cc2c(cc1O)CCC1C2CCC2(C)C(O)CCC12 (stereo not drawn) [NSC 682429] | ✓ | ✓ | ✓ | 2.2 µM |  | T/C (volume of treated tumors over volume of control tumors) ([5]; 44 days at 225 mg/kg p.o.): 0.25; tumor growth inhibition, comparison in words (FIG. 4) ([5]; FIG. 4): most effective tumor inhibiting compound tested; inhibition in corneal pocket assay ([6]; 300 mg/kg): 34%
CC12CCC3c4cc(Br)c(O)cc4CCC3C1CCC2O (stereo not drawn) [2-Bromoestradiol] |  |  |  |  | 4.5 ± 0.6 µM | 
CC(=O)Nc1cc2c(cc1O)CCC1C2CCC2(C)C(O)CCC12 (stereo not drawn) [NSC 673651] |  |  |  |  |  | IC50 [1]: 30.9 µM; Tubulin IC50 (tubulin [3]): weak
CC12CCC3c4cc(OCC(F)(F)F)c(O)cc4CCC3C1CCC2O (stereo not drawn) [NSC 678473] |  |  |  | 1.7 µM |  | IC50 [1]: 0.794 µM; Tumor Panel: Average log IC50(Molar) against 8 human breast cancer cell lines [1]: −5.8 log Molar
COc1ccc2c(c1)CCC1C2CCC2(C)C(O)CCC12 (stereo not drawn) [Estradiol-3-0-methyl ether] |  |  |  |  | > 40 µM | 
C#CC1(O)CCC2C3CCc4cc(O)c(OC)cc4C3CCC21C (stereo not drawn) [2-Methoxy-17-ethynylestradiol] |  |  |  |  | > 40 µM | 
CC=Cc1cc2c(cc1O)CCC1C2CCC2(C)C(O)CCC12 (stereo not drawn) [NSC 667047] | ✓ | ✓ | ✓ | 1.2 ± 0.1 µM |  | IC50 [1]: 0.1 µM; Tumor Panel: Average log IC50(Molar) against 8 human breast cancer cell lines [1]: −6.9 log Molar; Most Sensitive Cell Lines in Human Tumor Cell Panel Assay: Melanoma (Melanoma cell lines): ✓; T/C (volume of treated tumors over volume of control tumors) ([5]; 29 days at 75 mg/kg p.o.): 0.40; Most Sensitive Cell Lines in Human Tumor Cell Panel Assay: Renal (Renal cell lines): ✓
CCOc1cc2c(cc1O)CCC1C2CCC2(C)C(O)CCC12 (stereo not drawn) [NSC 671043] | ✓ | ✓ | ✓ |  |  | IC50 [1]: 0.0316 µM; Tumor Panel: Average log IC50(Molar) against 8 human breast cancer cell lines [1]: −7.7 log Molar; T/C (volume of treated tumors over volume of control tumors) [5, 7]: 0.9
COc1cc2c(cc1O)CCC1C2CCC2(C)C(O)C(O)CC12 (stereo not drawn) [2-Methoxyestriol] |  |  |  |  | > 40 µM | 
C[C@]12CC[C@@H]3c4cc(OCC(F)(F)F)c(O)cc4C(=O)C[C@H]3[C@@H]1CC[C@@H]2O [NSC 681684] |  |  |  | 6 µM |  | Tumor Panel: Average log IC50(Molar) against 8 human breast cancer cell lines [1]: −5.06 log Molar; inhibition in corneal pocket assay ([6]; 225 mg/kg): 36%
COc1ccc2c(c1OC)CCC1C2CCC2(C)C(O)CCC12 (stereo not drawn) [4-Methoxyestradiol-3-0-methyl ether] |  |  |  |  | > 40 µM | 
CCOc1cc2c(cc1O)C(O)C[C@@H]1[C@@H]2CC[C@]2(C)[C@@H](O)CC[C@@H]12 (stereo partly drawn) [NSC 683688] | ✓ | ✓ | ✓ |  |  | Tumor Panel: Average log IC50(Molar) against 8 human breast cancer cell lines [1]: −6.3 log Molar; Most Sensitive Cell Lines in Human Tumor Cell Panel Assay: Melanoma (Melanoma cell lines): ✓; Most Sensitive Cell Lines in Human Tumor Cell Panel Assay: Renal (Renal cell lines): ✓
